Results as given in patent publication US8952024B2, “Herbicidal pyrimidone derivatives” (E I du Pont de Nemours and Company, priority 2009, dated 2015).

Key:
Type in all cases: in vivo
[1] = system: goosegrass (Eleusine indica); assay: Test B pre-/postemergence plant response; settings: Preemergence, 62 g ai/ha; scale 0 to 100 (0 no effect, 100 complete control)
[2] = system: buckwheat (wild buckwheat, Polygonum convolvulus); assay: Test C plant response; settings: Postemergence, scale 0 to 100
Outline: (§1)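 Compounds in non-phytotoxic solvent mixture with surfactant. Visual rating versus controls after 14 days in controlled environment, scale 0 (no effect) to 100 (complete control).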

[3] = system: bluegrass (annual bluegrass, Poa annua); assay: Test C plant response; settings: Postemergence, scale 0 to 100
Outline: as §1

[4] = system: pigweed (Amaranthus retroflexus); assay: Test C plant response; settings: Postemergence, scale 0 to 100
Outline: as §1

[5] = system: oilseed rape (Brassica napus); assay: Test C plant response; settings: Postemergence, scale 0 to 100
Outline: as §1

[6] = system: spring barley (Hordeum vulgare); assay: Test C plant response; settings: Postemergence, scale 0 to 100
Outline: as §1

[7] = system: winter wheat (Triticum aestivum); assay: Test C plant response; settings: Postemergence, scale 0 to 100
Outline: as §1

[8] = system: field violet (Viola arvensis); assay: Test C plant response; settings: Postemergence, scale 0 to 100
Outline: as §1

wild oat (Avena fatua) = assay: Test C plant response; settings: Postemergence, scale 0 to 100
Outline: as §1

[9] = system: green foxtail (Setaria viridis); assay: Test C plant response; settings: Postemergence, scale 0 to 100
Outline: as §1

Compound	Plant response rating, Goosegrass [1]	Plant response rating: Buckwheat, Wild ([2]; 31 g ai/ha)	Plant response rating: Buckwheat, Wild ([2]; 16 g ai/ha)	Plant response rating: Buckwheat, Wild ([2]; 62 g ai/ha)	Plant response rating: Buckwheat, Wild ([2]; 125 g ai/ha)	Plant response rating: Bluegrass ([3]; 31 g ai/ha)	Plant response rating: Bluegrass ([3]; 62 g ai/ha)	Plant response rating: Bluegrass ([3]; 125 g ai/ha)	Plant response rating: Pigweed ([4]; 31 g ai/ha)	Plant response rating: Pigweed ([4]; 16 g ai/ha)	Plant response rating: Pigweed ([4]; 62 g ai/ha)	Plant response rating: Pigweed ([4]; 125 g ai/ha)	Plant response rating: Oilseed Rape ([5]; 31 g ai/ha)	Plant response rating: Oilseed Rape ([5]; 16 g ai/ha)	Plant response rating: Oilseed Rape ([5]; 62 g ai/ha)	Plant response rating: Oilseed Rape ([5]; 125 g ai/ha)	Plant response rating: Barley, Spring ([6]; 31 g ai/ha)	Plant response rating: Barley, Spring ([6]; 16 g ai/ha)	Plant response rating: Barley, Spring ([6]; 62 g ai/ha)	Plant response rating: Barley, Spring ([6]; 125 g ai/ha)	other results
3-cyclohexyl-5-[(2-hydroxy-6-oxo-1-cyclohexen-1-yl)carbonyl]-2-phenyl-4(3H)-pyrimidinone [Compound 128]	95	70	65	80	80	35	65	80	95	75	95	98	95	90	98	100	15	0	20	30	Plant response rating: Wheat, Winter ([7]; 31 g ai/ha): 30; Plant response rating: Wheat, Winter ([7]; 16 g ai/ha): 0; Plant response rating: Wheat, Winter ([7]; 62 g ai/ha): 30; Plant response rating: Wheat, Winter ([7]; 125 g ai/ha): 35; Plant response rating: Field Violet ([8]; 31 g ai/ha): 0; Plant response rating: Field Violet ([8]; 16 g ai/ha): 0; Plant response rating: Field Violet ([8]; 62 g ai/ha): 35; Plant response rating: Field Violet ([8]; 125 g ai/ha): 35; Plant response rating: Oat, Wild (wild oat (Avena fatua); 31 g ai/ha): 25; Plant response rating: Oat, Wild (wild oat (Avena fatua); 62 g ai/ha): 50; Plant response rating: Oat, Wild (wild oat (Avena fatua); 125 g ai/ha): 70; Plant response rating: Foxtail, Green ([9]; 31 g ai/ha): 95; Plant response rating: Foxtail, Green ([9]; 16 g ai/ha): 95; Plant response rating: Foxtail, Green ([9]; 62 g ai/ha): 95; Plant response rating: Foxtail, Green ([9]; 125 g ai/ha): 95
Cc1ccccc1-n1c(-c2ccccc2)ncc(C(=O)C2=C(O)CCCC2=O)c1=O [Compound 12]	95	15	10	50	50	20	30	40	65	65	75	75	70	50	80	95	0	0	0	0	Plant response rating: Bluegrass ([3]; 16 g ai/ha): 10; Plant response rating: Wheat, Winter ([7]; 31 g ai/ha): 0; Plant response rating: Wheat, Winter ([7]; 16 g ai/ha): 0; Plant response rating: Wheat, Winter ([7]; 62 g ai/ha): 0; Plant response rating: Wheat, Winter ([7]; 125 g ai/ha): 10; Plant response rating: Field Violet ([8]; 31 g ai/ha): 35; Plant response rating: Field Violet ([8]; 16 g ai/ha): 35; Plant response rating: Field Violet ([8]; 62 g ai/ha): 40; Plant response rating: Field Violet ([8]; 125 g ai/ha): 40; Plant response rating: Oat, Wild (wild oat (Avena fatua); 31 g ai/ha): 15; Plant response rating: Oat, Wild (wild oat (Avena fatua); 16 g ai/ha): 0; Plant response rating: Oat, Wild (wild oat (Avena fatua); 62 g ai/ha): 15; Plant response rating: Oat, Wild (wild oat (Avena fatua); 125 g ai/ha): 15; Plant response rating: Foxtail, Green ([9]; 31 g ai/ha): 60; Plant response rating: Foxtail, Green ([9]; 16 g ai/ha): 50; Plant response rating: Foxtail, Green ([9]; 62 g ai/ha): 80; Plant response rating: Foxtail, Green ([9]; 125 g ai/ha): 90
